Reference: US9510593B2, “S-benzylthiouracil compounds and methods of enhancing plant root growth” (Valent BioSciences Corporation, priority 2014, dated 2016)
“Also recorded” adds a separate entry of the source. Where two headings read alike, the source gives them in different places.

Legend:
Assay type in all cases: in vivo
[1] = test system: mungbean; assay: Mungbean pouch assay: growth of primary root and shoot; details: for Percent Change in Primary Root Length: mungbean, linkage changes; for change in vivo at 10 ppm: 96 h, read-out: Percent Change in Primary Root Length of Mungbean; for Effect on mungbean root (and shoot) growth, in words: mungbean pouch assay; for Shoot Length / Root Length: 4 days; for Shoot Length: control 4.9; for Root Length: control 6.1
Procedure: (§1) Seeds were placed in germination pouches consisting of germination paper as an insert in a gas-permeable 16×14 cm plastic pouch (CYG Pouch; Mega International, St. Paul, Minn.). In pouch solution evaluation, S-Benzylthiouracil compounds or their salts were dissolved in a small volume of DMSO and added to sterile water with a maximum of 0.5% v/v DMSO at final dilution. The S-Benzylthiouracil solution was subsequently pipetted into the growth pouch, followed by the addition of seeds of the crop being tested. The pouches were arranged in a randomized complete block design in growth racks and placed in 19-liter polycarbonate food storage containers (Rubbermaid Commercial Products, Winchester, Va.). The sealed containers were held in an upright growth cabinet maintained at 25 C with a 12 hour light: 12 hour dark photoperiod. For rice, plants were harvested at 6 d, while in mungbean and corn, the plants were harvested at 4 d post sowing. Measurements were performed on the primary root and shoot of each seedling. The growth of the primary root of mungbean was examined in the pouch assay system. The results of the testing, presented as percent change in root length across all the free S-Benzylthiouracil compounds is shown below. The following S-Benzylthiouracil compounds have benzyl substitutions as defined in Table 11 below.

[2] = test system: rice; assay: Rice pouch assay: growth of primary root and shoot; details: for Percent Change in Primary Root Length of Rice: linkage changes; for Effect on rice root growth, in words: rice pouch assay, compared to control; for change in vivo at 10 ppm: Oryza sativa, 144 h, read-out: Percent Change in Primary Root Length in Rice; for Percent Change (rice primary root growth): compounds and water-soluble salts
Procedure: as §1, with “of rice” for “of mungbean”, “all” for “all the free”, “S-Benzylthiouracil compounds, are” for “S-Benzylthiouracil compounds is”, “below.” for “below. The following S-Benzylthiouracil compounds have benzyl substitutions as defined in Table 11 below.”

[3] = test system: tomato; assay: Tomato petri plate assay; details: for change in vivo at 10 ppm: Solanum lycopersicum, 144 h, after 6 days of continuous exposure, read-out: Percent Increase (percent change in primary tomato root length); for Effect on tomato root growth, in words: continuous exposure; for Shoot Length / Root Length: 6 days after sowing; for Shoot Length: control 3.3; for Root Length: control 3.5
Procedure: For tomato, the plants were grown in disposable (150 mm) sterile plastic petri plates (Falcon, BD Biosciences, Franklin Lakes, N.J.). In the tomato assay, a single sheet of Whatman #1 filter paper was placed at the bottom of the plate, 15 tomato seeds were added, and 10 mL of treatment solution was added. At the end of 6 d, the 10 largest seedlings were selected for measurement from each plate. In each study, a minimum of 3 replicate plates were used. In tomato, several S-Benzylthiouracil compounds were tested to determine the effects on root growth.

[4] = 10 ppm (10 mg/L), benzyl ring substitutions
[5] = 10 ppm (10 mg/L), benzyl ring substitutions, vs control
[6] = 10 ppm (10 mg/L), uracil moiety substitutions
[7] = 10 ppm (10 mg/L), uracil moiety substitutions, vs control
[8] = 10 ppm equivalent, 6 days after sowing, control 2.96
[9] = 10 ppm equivalent, 6 days after sowing, control 8.61
[10] = 10 mg/liter, 6 days after sowing, untreated control 10.50
[11] = 30 mg/liter, 6 days after sowing, untreated control 10.50

## Oc1ccnc(SCCc2ccccc2)n1 [Compound 22]
[1]; 10 ppm (10 mg/L)
  Percent Change in Primary Root Length: 29.0%
[2]; 10 ppm (10 mg/L), vs control
  Percent Change in Primary Root Length of Rice: 5.3%
[2]
  Effect on rice root growth, in words: modest enhancements in root growth

## Oc1ccnc(SCc2ccc(F)c(F)c2)n1 [Compound 5, S-(3,4-Difluorobenzyl)-2-thiouracil]
[1]; [4]
  change in vivo at 10 ppm: 17.6%
[2]; [5]
  change in vivo at 10 ppm: 13.4%
[3]; 10 ppm
  change in vivo at 10 ppm: 23.4%

## CCOC(=O)c1cnc(SCc2cccc(F)c2)nc1O [Compound 12, S-(3-Fluorobenzyl)-5-carboxyethyl-2-thiouracil]
[1]; [6]
  change in vivo at 10 ppm: -20.1%
[1]
  Effect on mungbean root (and shoot) growth, in words: significant negative effect on root growth
[2]; [7]
  change in vivo at 10 ppm: 9.5%

## Oc1ccnc(SCc2cc(F)cc(F)c2)n1 [Compound 6, S-(3,5-Difluorobenzyl)-2-thiouracil]
[1]; [4]
  change in vivo at 10 ppm: 3%
[2]; [5]
  change in vivo at 10 ppm: 8.8%

## Oc1ccnc(OCc2ccccc2)n1 [Compound 24, 2-O-Benzyluracil]
[1]; 10 ppm (10 mg/L)
  Percent Change in Primary Root Length: −1.3%
[2]; 10 ppm (10 mg/L), vs control
  Percent Change in Primary Root Length of Rice: 2.2%

## Cc1cc(O)nc(SCc2c(Cl)cccc2Cl)n1 [Compound 16, S-(2,6-Dichlorobenzyl)-6-methyl-2-thiouracil]
[1]; [6]
  change in vivo at 10 ppm: 6.6%
[2]; [8]
  Shoot Length: 2.71 cm
[2]; [9]
  Root Length: 9.31 cm
[2]; [7]
  change in vivo at 10 ppm: 5.5%
[3]; 10 ppm
  change in vivo at 10 ppm: -7.2%

## Cc1cc(O)nc(SCc2ccccc2)n1 [Compound 15]
[1]; 1 ppm
  Shoot Length: 5.6 cm
  Root Length: 6.9 cm
[1]; 10 ppm
  Shoot Length: 5.0 cm
  Root Length: 8.5 cm
[1]; [6]
  change in vivo at 10 ppm: 36.2%
[1]
  Effect on mungbean root (and shoot) growth, in words: greatest increases in mungbean root growth; also recorded: both root and shoot showed significant increases in growth
[2]; [7]
  Percent Change in Primary Root Length in Rice: 7.6%
  change in vivo at 10 ppm: 7.6%
[3]
  Effect on tomato root growth, in words: root growth inhibition

## COc1ccc(CSc2nccc(O)n2)cc1 [Compound 8]
[2]; [5]
  change in vivo at 10 ppm: 0.4%

## Fc1cccc(CSc2ncccn2)c1 [Compound 17]
[1]; [6]
  change in vivo at 10 ppm: 11.1%
[2]; [7]
  change in vivo at 10 ppm: 5.1%

## [K+].[O-]c1ccnc(SCc2cccc(F)c2)n1 [Compound 1 K+ salt, Potassium Salt of S-(3-Fluorobenzyl)-2-thiouracil]
[2]; 10 mg/liter, 6 days after sowing, untreated control 9.67
  Root Length: 11.03 cm
[2]; 30 mg/liter, 6 days after sowing, untreated control 9.67
  Root Length: 9.71 cm

## [Na+].[O-]c1ccnc(SCc2ccccc2)n1 [Compound 2 Na+ salt, Sodium Salt of S-Benzyl-2-thiouracil]
[2]; [10]
  Root Length: 12.35 cm
[2]; [11]
  Root Length: 13.03 cm

## Oc1ccnc(SCc2ccccc2F)n1 [Compound 4]
[1]; [4]
  change in vivo at 10 ppm: 17.7%
[2]; [5]
  change in vivo at 10 ppm: 13.5%

## Nc1ccnc(SCc2cccc(F)c2)n1 [Compound 19]
[2]; [7]
  change in vivo at 10 ppm: 2.9%

## Oc1ccnc(OCc2cccc(F)c2)n1 [Compound 21, 2-O-(3-fluorobenzyl)uracil]
[1]; 10 ppm (10 mg/L)
  Percent Change in Primary Root Length: 9.1%
[2]; 10 ppm (10 mg/L), vs control
  Percent Change in Primary Root Length of Rice: 6.0%

## O=c1cc[nH]c(=O)[nH]1 [Uracil]
[3]; 10 ppm
  change in vivo at 10 ppm: -21%

## Cc1cccc(CSc2nccc(O)n2)c1 [Compound 9]
[1]; [4]
  change in vivo at 10 ppm: 5.9%
[2]; [5]
  change in vivo at 10 ppm: -2.3%

## Oc1ccnc(SCc2ccccc2)n1 [Compound 2, 2-[(phenylmethyl)thio]-4(3H)-pyrimidinone]
[1]; [4]
  Percent Change in Primary Root Length of Mungbean: 18.9%
  change in vivo at 10 ppm: 18.9%
[2]; [10]
  Root Length: 12.44 cm
[2]; [11]
  Root Length: 12.21 cm
[2]; 1 ppm, 6 days after treatment, control 5.7
  Root Length: 6.7 cm
[2]; 10 ppm, 6 days after treatment, control 5.7
  Root Length: 7.8 cm
[2]; 10 ppm, 6 days after sowing
  Percent Change (rice primary root growth): 15.6%
[2]; [5]
  change in vivo at 10 ppm: 15.6%
[2]
  Effect on rice root growth, in words: increased the root length compared to the control treatment
[3]; 1 ppm
  Shoot Length: 3.3 cm
  Root Length: 3.8 cm
[3]; 10 ppm
  Shoot Length: 3.0 cm
  Root Length: 3.8 cm
  change in vivo at 10 ppm: 23%
[3]
  Effect on tomato root growth, in words: one of the most active compounds in tomato; also recorded: root length was increased in a dose-dependent fashion
[3]; listed as S-Benzylthiouracil
  Effect on tomato root growth, in words: active at promoting root growth

## Oc1nc(SCc2cccc(F)c2)nc2[nH]cnc12 [Compound 13]
[1]; [6]
  change in vivo at 10 ppm: 4.5%
[2]; [7]
  change in vivo at 10 ppm: 8.7%
[3]; 10 ppm
  change in vivo at 10 ppm: 0.8%
[3]
  Effect on tomato root growth, in words: root growth inhibition

## Cc1cc(O)nc(SCc2ccccc2Cl)n1 [Compound 20]
[1]; [6]
  change in vivo at 10 ppm: 8.2%
[2]; 1 ppm, 6 days after planting, control 1.7
  Shoot Length: 1.4 cm
[2]; 1 ppm, 6 days after planting, control 5.4
  Root Length: 5.3 cm
[2]; 2 ppm, 6 days after planting, control 1.7
  Shoot Length: 1.3 cm
[2]; 2 ppm, 6 days after planting, control 5.4
  Root Length: 4.7 cm
[2]; 5 ppm, 6 days after planting, control 1.7
  Shoot Length: 1.2 cm
[2]; 5 ppm, 6 days after planting, control 5.4
  Root Length: 4.6 cm
[2]; 10 ppm, 6 days after planting, control 1.7
  Shoot Length: 0.9 cm
[2]; 10 ppm, 6 days after planting, control 5.4
  Root Length: 3.8 cm
[2]; [7]
  change in vivo at 10 ppm: -6.9%
[2]
  Effect on rice root growth, in words: significantly negative effect; also recorded: dose-dependent reductions in root and shoot growth

## COc1cccc(CSc2nccc(O)n2)c1 [Compound 7]
[1]; [4]
  change in vivo at 10 ppm: 17.5%
[2]; [5]
  change in vivo at 10 ppm: 2.5%

## Oc1ccnc(SCc2ccc(F)cc2)n1 [Compound 3]
[1]; [4]
  change in vivo at 10 ppm: 10.4%
[2]; [8]
  Shoot Length: 2.59 cm
[2]; [9]
  Root Length: 9.38 cm
[2]; [5]
  change in vivo at 10 ppm: 13.9%
[3]; 10 ppm
  change in vivo at 10 ppm: 2.8%

## Cc1cc(O)nc(SCc2ccccc2C)n1 [Compound 14]
[1]; [6]
  change in vivo at 10 ppm: 15.4%
[2]; [7]
  change in vivo at 10 ppm: 8.6%

## Oc1ccnc(SC/C=C/c2ccccc2)n1 [Compound 23]
[2]; 10 ppm (10 mg/L), vs control
  Percent Change in Primary Root Length of Rice: 2.3%
[2]
  Effect on rice root growth, in words: modest enhancements in root growth
[3]; 10 ppm
  change in vivo at 10 ppm: -15.7%

## Oc1nccc(SCc2cccc(F)c2)n1 [Compound 11]
[1]; [6]
  change in vivo at 10 ppm: 8.9%
[2]; [7]
  change in vivo at 10 ppm: 10.6%
[3]; 10 ppm
  change in vivo at 10 ppm: -34.8%
[3]
  Effect on tomato root growth, in words: root growth inhibition

## Oc1cc(O)nc(SCc2ccccc2)n1 [Compound 10]
[1]; [6]
  change in vivo at 10 ppm: 5.9%
[2]; [7]
  change in vivo at 10 ppm: 11.5%
[3]; 10 ppm
  change in vivo at 10 ppm: 8.4%

## Oc1cc(O)nc(SCc2cccc(F)c2)n1 [Compound 18]
[1]; [6]
  change in vivo at 10 ppm: 11.3%
[2]; 10 ppm, 6 days after sowing
  Percent Change (rice primary root growth): 4.0%
[2]; [7]
  change in vivo at 10 ppm: 4%
[3]; 10 ppm
  change in vivo at 10 ppm: 15.4%
